The values below come from patent US20210345602A1, “MAMMAL CELL PRESERVING SOLUTION CONTAINING ACARBOSE OR STACHYOSE” (OTSUKA PHARMACEUTICAL FACTORY, INC., priority 2018, published 2021).

What all share (type): cell-based
Series [1] concerns bone marrow-derived human mesenchymal stem cells (hMSCs). The experiment in a line: Viability of hMSCs after preservation in test isotonic liquid, trypan blue staining method. The settings on record: for effect of suppressing the decrease in cell viability (screening of 93 saccharides): saccharide 87.5 mM in Lactec injection, compared with 88 mM trehalose or lactated Ringer's solution; for Cell viability (%) (Mean ± Standard deviation [SD]): n=3. As to the method:
[1] 4×10^5 hMSCs were added to a 75-cm^2 flask and cultured at 37° C. in a 5% CO2 incubator in the presence of a medium. The state of the cells was observed under a microscope, and the cells were cultured until about 80% confluent. The medium was removed, and the hMSCs were rinsed with 8-mL PBS(−). The PBS(−) was removed, and 3.75-mL trypsin-EDTA (manufactured by Lonza) was added thereto, and the mixture was left standing at room temperature for 5 minutes. The hMSCs were observed under a microscope and slowly shaken until about 90% of them were exfoliated. 3.75 mL of medium was added thereto, to stop the trypsin reaction, and the hMSCs were collected by pipetting and transferred to a 50-mL centrifuge tube. […] Centrifugation was performed at 600×g and 22° C. for 5 minutes. The supernatant (medium) was removed, 1.5 mL of PBS(−) was added thereto, and the precipitate (hMSCs) was suspended. The number of cells was measured and adjusted with PBS(−) to 5×10^3 cells/mL, to prepare PBS containing hMSCs. [Method for Preserving hMSCs in Each Test Isotonic Liquid]
[1] 0.5 mL of the PBS containing hMSCs prepared was dispensed into each tube and centrifuged (at 600×g for 5 minutes). […] [Analysis of Viability of hMSCs by Trypan Blue Staining Method]
[1] […] Thereafter, 20 μL of a trypan blue staining solution (manufactured by Gibco) was mixed thereto. As a comparative control, 20 μL (equivalent to 1×10^4 cells) was collected from each PBS containing hMSCs before suspension in each test isotonic liquid (before preservation at 4° C.) and transferred to a tube. Thereafter, 20 μL of a trypan blue staining solution was mixed thereto. The total number of cells and the number of trypan blue-positive cells (dead cells) were measured under a microscope using OneCell Counter (manufactured by Bio Medical Science), to calculate the percentage of trypan blue-negative cells to the total number of cells, that is, the cell viability.

For series [2] the test system is unchanged. Nature of the series: Cell aggregation level of hMSCs after preservation, phase contrast microscope. The conditions noted are these: hMSCs preserved at 25° C. for 48 hours; 88 mM acarbose in Lactec injection. As to the method: The hMSCs were preserved in each test isotonic liquid at 25° C. for 48 hours according to the method described in Example 1. Each test isotonic liquid containing the hMSCs after preservation was partially collected, and the presence or absence of cell aggregates in which three or more cells gather together was observed under a phase contrast microscope.

In the next series the test system is rat hepatocytes. The experiment in a line: Viability of rat hepatocytes after preservation in test isotonic liquid, trypan blue staining method. The conditions noted are these: rat hepatocytes preserved at 4° C. for 24 hours; n=6; Pre 70.8±3.32.
For the next series, the system named is CD8-positive T cells. The experiment in a line: Viability of expansion-cultured CD8-positive T cells after preservation, trypan blue staining method. The settings on record: CD8-positive T cells preserved at 5° C. for 24 hours; n=3.
[3] abbreviates: hMSCs preserved at 4° C. for 3 days.
[4] abbreviates: hMSCs preserved at 4° C. for 2 days, Pre 94.7±2.1.
The mark [5] stands for this setting: hMSCs preserved at 4° C. for 3 days, α-glucosidase inhibitors 175 mM, Pre 98.5±0.6.
Where [6] appears, read: hMSCs preserved at 5° C. for 4 days, Pre 93.7±2.0%.

Protocol for CD8-positive T cells: Cryopreserved CD8-positive T cells were thawed, then washed with a lymphocyte culture medium (LGM3, manufactured by Lonza), and incubated in the medium for about 1 hour (at 37° C. in 5% CO2). […] The medium containing the CD8-positive T cells was separated and centrifuged (at 300×g and room temperature for 10 minutes). […] The supernatant was removed, and the cells were suspended in TLY CULTURE kit 25 (manufactured by GC LYMPHOTEC Inc.) and the CD8-positive T cells were expansion-cultured under conditions of 37° C. and 5% CO2 for 7 days.
CD8-positive T cells (with a cell concentration of about 1.1×10^6 cells/5 mL) expansion-cultured for 7 days were washed with Lactec injection containing 88 mM trehalose, dispensed in Stemfull tube (manufactured by Sumitomo Bakelite Co., Ltd.), and then centrifuged (at 300×g and room temperature for 10 minutes). […] The supernatant was removed, and the precipitate (CD8-positive T cells) was suspended in 3 kinds of test isotonic liquids (Lactec injection containing 88 mM acarbose, Lactec injection containing 88 mM trehalose, and Lactec injection) and then preserved at 5° C. for 24 hours. […] After preservation for 24 hours, the cell viability was measured according to the method described in procedure [2] above.
Protocol for rat hepatocytes: A stock tube of rat hepatocytes was taken out of a liquid nitrogen tank and thawed in a constant temperature bath at 37° C. […] Immediately after thawing, it was allowed to stand on ice and transferred to a 50-mL centrifuge tube. […] 25 mL of hepatocyte wash medium (which will be hereinafter referred to as “wash medium”) (manufactured by GIBCO) cooled with ice was added dropwise. […] Centrifugation was performed at 50×g and 4° C. for 3 minutes. […] The supernatant (wash medium) was removed, 6 mL of wash medium was added thereto, and the precipitate (rat hepatocytes) was suspended by pipetting 2 to 3 times. […] The number of cells was measured and adjusted with a wash medium to 5×10^3 cells/mL, to prepare a wash medium containing rat hepatocytes.
0.5 mL of the wash medium containing rat hepatocytes prepared was dispensed into each tube and centrifuged (at 50×g and 4° C. for 3 minutes). […] The supernatant (wash medium) was removed, and the precipitate (rat hepatocytes) was suspended in 0.5 mL of each test isotonic liquid and preserved at 4° C. for 24 hours.

`O=C[C@H](O)[C@@H](O)[C@@H](O)[C@H](O)C(=O)O` [D-galacturonic acid]: the “effect of suppressing the decrease in cell viability (screening of 93 saccharides)” value (“effect of suppressing the decrease” for short) in series [1] (setting [3]) is given as “cell viability decreased”.

On to `OC[C@H]1O[C@H](O[C@H]2[C@H](O)[C@@H](O)[C@@H](O[C@H]3[C@H](O)[C@@H](O)[C@@H](O[C@H]4[C@H](O)[C@@H](O)C(O)O[C@@H]4CO)O[C@@H]3CO)O[C@@H]2CO)[C@H](O)[C@@H](O)[C@@H]1O` (stereo partly shown) [maltotetraose], for which the “Cell viability (%) (Mean ± Standard deviation [SD])” value in series [1] (setting [4]) is reported as “such an increase in cell viability was not observed”.

Turning to `N[C@@H]1C(O)O[C@H](CO)[C@@H](O)[C@@H]1O` (stereo partly drawn) [D-mannosamine], the “effect of suppressing the decrease” value in series [1] (setting [3]) is listed as “cell viability decreased”.

Turning to `OCCN1C[C@H](O)[C@@H](O)[C@H](O)[C@H]1CO` [miglitol], in series [1] (setting [5]), the “Cell viability (%) (Mean ± Standard deviation [SD])” value is on record as “cell viability was almost unchanged”.

As to `O=C(O)[C@H](O)[C@@H](O)[C@H](O[C@@H]1O[C@H](CO)[C@H](O)[C@H](O)[C@H]1O)[C@H](O)CO` [D-lactobionic acid], the “effect of suppressing the decrease” value in series [1] (setting [3]) is “cell viability decreased”.

Consider `OC[C@H]1O[C@@](CO)(OC[C@@]2(OC[C@@]3(O[C@H]4O[C@H](CO)[C@@H](O)[C@H](O)[C@H]4O)O[C@H](CO)[C@@H](O)[C@@H]3O)O[C@H](CO)[C@@H](O)[C@@H]2O)[C@@H](O)[C@@H]1O` [nystose], for which the “Cell viability (%) (Mean ± Standard deviation [SD])” value in series [1] (setting [4]) is given as “such an increase in cell viability was not observed”.

With `OC[C@H]1O[C@H](OC[C@H]2O[C@H](OC[C@H]3O[C@H](O[C@]4(CO)O[C@H](CO)[C@@H](O)[C@@H]4O)[C@H](O)[C@@H](O)[C@@H]3O)[C@H](O)[C@@H](O)[C@H]2O)[C@H](O)[C@@H](O)[C@H]1O` [stachyose], the “Cell viability (%) (Mean ± Standard deviation [SD])” value in series [1] (setting [4]) is recorded as “cell viability increased”; in series [1] (setting [6]), “cell viability significantly increased at any concentration”. In series [1] (setting [3]), the “effect of suppressing the decrease” value is “higher effect of suppressing the decrease in cell viability than trehalose”.

Turning to `C[C@H]1O[C@H](O[C@H]2[C@H](O)[C@@H](O)[C@@H](O[C@H]3[C@H](O)[C@@H](O)C(O)O[C@@H]3CO)O[C@@H]2CO)[C@H](O)[C@@H](O)[C@@H]1N[C@H]1C=C(CO)[C@@H](O)[C@H](O)[C@H]1O` (stereo partly shown) [acarbose], the “presence or absence of cell aggregates (three or more cells)” value in series [2] was “almost no cell aggregates were observed”. Moreover, the “Cell viability (%) (Mean ± Standard deviation [SD])” value is given as “cell viability increased” in series [1] (setting [4]), “cell viability increased” in series [1] (setting [5]) and “cell viability significantly increased” in the series with rat hepatocytes. Moreover, the “effect of suppressing the decrease” value in series [1] (setting [3]) is on record as “higher effect of suppressing the decrease in cell viability than trehalose”. The “Cell viability (%) (Mean ± Standard deviation [SD]) 24 hours” value with CD8-positive T cells was “cell viability significantly increased”.

`OCC(CO)N[C@H]1C[C@](O)(CO)[C@@H](O)[C@H](O)[C@H]1O` [voglibose]: the “Cell viability (%) (Mean ± Standard deviation [SD])” value in series [1] (setting [5]) is given as “cell viability was almost unchanged”.

In the case of `CC1(C)O[C@H](CO)[C@@H](CO)O1` [(−)-2,3-O-iso propylidene-D-threitol], in series [1] (setting [3]), the “effect of suppressing the decrease” value is on record as “cell viability decreased”.

Consider `OC[C@H]1O[C@H](O[C@H]2O[C@H](CO)[C@@H](O)[C@H](O)[C@H]2O)[C@H](O)[C@@H](O)[C@@H]1O` [trehalose], for which, in series [1] (setting [6]), the “Cell viability (%) (Mean ± Standard deviation [SD])” value is listed as “cell viability increased”. The “Cell viability (%) (Mean ± Standard deviation [SD]) 24 hours” value in the series on CD8-positive T cells is reported as “cell viability increased”.
